Measured values from patent publication US20210059959A1, “USE OF CANNABINOIDS IN THE TREATMENT OF MENTAL DISORDERS” (GW Pharma Limited, priority 2015, published 2021).

What was measured:
rats treated with MK-801 = conditions: cited from earlier work
[1] = system: patients with bipolar affective disorder; conditions: two female patients, 30 days; one with olanzapine as adjunct, one CBD monotherapy; cited from earlier work
[2] = system: participants with schizophrenia or related psychotic disorder; assay: Positive and Negative Syndrome Scale (PANSS), double-blind placebo-controlled study of CBD as adjunctive therapy; type: in vivo, human
Procedure: Example 1 below describes the use of a highly purified cannabis extract comprising cannabidiol (CBD) in a human clinical trial. Example 1 describes data produced in a double-blind, randomised, placebo-controlled, parallel group study of highly purified CBD as adjunctive therapy in first line treatment of schizophrenia or related psychotic disorder.
An eight-week, multi-centre, double-blind, randomised, placebo-controlled, parallel group study was conducted with the aim to determine the efficacy, safety and tolerability of highly purified CBD as adjunctive therapy in first line treatment of schizophrenia or related psychotic disorder.
This study evaluated the efficacy of highly purified CBD compared with placebo on the participant's PANSS Total score, ‘P’, ‘N’, ‘G’, SANS and BACS scores.
Changes from baseline in PANSS scores (Total, ‘P’, ‘N’ and ‘G’), SANS and BACS were recorded at the start of the study (baseline) and at the end of treatment (after 6 weeks treatment with CBD or placebo).
For inclusion in the study participants were required to be male or female aged 18 to 65 years, diagnosed with schizophrenia or a related psychotic disorder (such as schizoaffective or schizophreniform disorder) as defined by the Diagnostic and Statistical Manual of Mental Disorders Version 4. Participants must have been treated for a minimum of four-weeks and be on a stable dose of their current antipsychotic medication. […] A PANSS score in excess of 60 infers that the patient has symptoms related to schizophrenia or related disorders.
The participants were randomised to one of two treatment groups which each consisted of 39 participants. Treatment was administered as either 5 ml CBD (100 mg/ml) oral solution to be taken twice daily or 5 ml matched placebo oral solution to be taken twice daily.
Positive and Negative Syndrome Scale (PANSS)
The PANSS is a medical scale completed by a trained rater and is used for measuring symptom severity of participants with schizophrenia or related psychotic disorder. The name refers to the two types of symptoms in schizophrenia, as defined by the American Psychiatric Association: positive symptoms, which refer to an excess or distortion of normal functions (e.g. hallucinations and delusions), and negative symptoms, which represent a diminution or loss of normal functions.
It is a 30 item rating instrument that assesses the positive and negative symptoms of schizophrenia as well as symptoms of general psychopathology. A PANSS Total score is derived from the sum of the 30 items and the PANSS items are also grouped into three subscales: Positive (‘P’), Negative (‘N’), and General (‘G’). Individual items are rated on a seven point scale, where 1=absent and 7=extreme. This scale was measured at each assessment visit (Visit 1-4).
The minimum score PANSS scoring system is 30 and patients with a score of higher than 60 are considered to still be suffering psychotic symptoms.
PANSS ‘P’ scale measures the severity of: • i) Delusions • ii) Conceptual disorganisation • iii) Hallucinations • iv) […] • v) Grandiosity • vi) Suspiciousness/persecution • vii) Hostility
PANSS ‘N’ scale measures the severity of: • i) Blunted affect • ii) Emotional withdrawal • iii) Poor rapport • iv) Passive/apathetic social withdrawal • v) Difficulty in abstract thinking • vi) Lack of spontaneity and flow of conversation • vii) Stereotyped thinking
PANSS ‘G’ psychopathology scale measures the severity of: • i) Somatic concern • ii) Anxiety • iii) Guilt feelings • iv) Tension • v) Mannerisms and posturing • vi) Depression • vii) Motor retardation • viii) Uncooperativeness • ix) Unusual thought content • x) Disorientation • xi) Poor attention • xii) Lack of judgment and insight • xiii) Disturbance of volition • xiv) Poor impulse control • xv) Preoccupation • xvi) Active social avoidance

[3] = CBD adjunct, 6 weeks, all patients
[4] = CBD adjunct, 6 weeks, patients on amisulpride
[5] = CBD adjunct, 6 weeks, patients on aripiprazole
[6] = CBD adjunct, 6 weeks, patients on olanzapine
[7] = CBD adjunct, 6 weeks, patients on other antipsychotics
[8] = CBD adjunct, 6 weeks, patients on quetiapine
[9] = CBD adjunct, 6 weeks, patients on risperidone

## C=C(C)[C@@H]1CCC(C)=C[C@H]1c1c(O)cc(CCCCC)cc1O [CBD, Cannabidiol]
Rats treated with MK-801
  Effect on social deficits: reverse social deficits
[1]
  Efficacy in bipolar affective disorder: ineffective
[2]; [3]
  Change in baseline scores, PANSS total score: −11.4
  Change in baseline scores, PANSS ‘G’ score: −5.3
  Change in baseline scores, PANSS ‘N’ score: −3.1
  Change in baseline scores, PANSS ‘P’ score: −3.1
[2]; [4]
  Change in baseline scores, PANSS total: −11.3
  Change in baseline scores, PANSS ‘P’ score: −4.0
[2]; [5]
  Change in baseline scores, PANSS total: −12.3
  Change in baseline scores, PANSS ‘P’ score: −3.8
[2]; [6]
  Change in baseline scores, PANSS total: −17.5
  Change in baseline scores, PANSS ‘P’ score: −3.9
[2]; [7]
  Change in baseline scores, PANSS total: −10.3
  Change in baseline scores, PANSS ‘P’ score: −1.4
[2]; [8]
  Change in baseline scores, PANSS total: −7.5
  Change in baseline scores, PANSS ‘P’ score: −1.7
[2]; [9]
  Change in baseline scores, PANSS total: −7.8
  Change in baseline scores, PANSS ‘P’ score: −2.6
[2]; CBD adjunct, patients with >= 20% change from baseline, P = 0.0679 vs placebo
  Responder status for change in baseline scores, PANSS ‘P’ score: 42.9%
[2]; CBD adjunct, patients with >= 20% change from baseline, P = 0.0896 vs placebo
  Responder status for change in baseline scores, PANSS total score: 28.6%
[2]; CBD adjunct, patients with >= 20% change from baseline, P = 0.2598 vs placebo
  Responder status for change in baseline scores, PANSS ‘G’ score: 28.6%
[2]; CBD adjunct, patients with >= 20% change from baseline, P = 0.7951 vs placebo
  Responder status for change in baseline scores, PANSS ‘N’ score: 26.2%
[2]; CBD vs placebo, all patients, P = 0.0188
  Change in baseline scores, PANSS ‘P’ score: difference: (−1.4)
[2]; CBD vs placebo, all patients, P = 0.1332
  Change in baseline scores, PANSS total score: difference: (−2.8)
[2]; CBD vs placebo, all patients, P = 0.1963
  Change in baseline scores, PANSS ‘G’ score: difference: (−1.3)
[2]; CBD vs placebo, all patients, P = 0.8841
  Change in baseline scores, PANSS ‘N’ score: difference: (−0.1)
[2]; CBD vs placebo, patients on amisulpride, P = 0.5543
  Change in baseline scores, PANSS total: difference: (7.9)
[2]; CBD vs placebo, patients on amisulpride, P = 0.8241
  Change in baseline scores, PANSS ‘P’ score: difference: (−0.5)
[2]; CBD vs placebo, patients on aripiprazole, P = 0.0345
  Change in baseline scores, PANSS ‘P’ score: difference: (−3.1)
[2]; CBD vs placebo, patients on aripiprazole, P = 0.1220
  Change in baseline scores, PANSS total: difference: (−6.2)
[2]; CBD vs placebo, patients on olanzapine, P = 0.0067
  Change in baseline scores, PANSS total: difference: (−10.7)
[2]; CBD vs placebo, patients on olanzapine, P = 0.1434
  Change in baseline scores, PANSS ‘P’ score: difference: (−1.5)
[2]; CBD vs placebo, patients on other antipsychotics, P = 0.2746
  Change in baseline scores, PANSS total: difference: (−10.6)
[2]; CBD vs placebo, patients on other antipsychotics, P = 0.9550
  Change in baseline scores, PANSS ‘P’ score: difference: (−0.2)
[2]; CBD vs placebo, patients on quetiapine, P = 0.6640
  Change in baseline scores, PANSS total: difference: (5.1)
[2]; CBD vs placebo, patients on quetiapine, P = 0.7905
  Change in baseline scores, PANSS ‘P’ score: difference: (0.6)
[2]; CBD vs placebo, patients on risperidone, P = 0.4625
  Change in baseline scores, PANSS ‘P’ score: difference: (−0.8)
[2]; CBD vs placebo, patients on risperidone, P = 0.6470
  Change in baseline scores, PANSS total: difference: (1.8)
